Assays:
male Wistar rats = test: Acute toxicity; format: in vivo; settings: 7 days observation
Source text: The pyrimidine derivatives of the present invention were examined for acute toxicity by using male Wistar rats fasted over night aged 7 weeks old.

serum total cholesterol = test: Hypocholesterolemic effect on cholesterol feeding rats; format: in vivo, male Wistar rats; settings: Rattus norvegicus, oral, high cholesterol diet rats, read-out: % reduction of serum total cholesterol; for inhibition in vivo at 10 mg/kg: 10 mg/kg/day
Method: Hypocholesterolemic effect on cholesterol feeding rats. Male Wistar rats aged 7 weeks old were fed a diet (CE®) supplemented with 2%(w/w) cholesterol, 0.5%(w/w) sodium cholate, 10%(w/w) lard, 0.2%(w/w) propylthiouracyl and 5%(w/w) sucrose, for 3 days. Following 3 days, the compounds of the present invention were administered orally, and the animals were maintained with the high cholesterol diet. On the next day of final drug administration, blood was drown and serum total cholesterol-levels were measured enzymatically by autoanalyzer. CL277082 was used as a reference compound.

ACAT = molecular target: T1, ACAT (Rattus norvegicus, UniProt Q7TQM4); test: Inhibitory effect on microsomal ACAT activity in rat liver; format: biochemical; settings: rat liver microsomes; read-out: IC50 (50% inhibition of cholesterol esterification)
T1 construct: Liver microsomes as an enzyme sample of ACAT were prepared from overnight-fasted male rats; from tissue; host or cells: liver of overnight-fasted male rats, 6 weeks old; microsomes
T1 sequence (Q7TQM4 1-524): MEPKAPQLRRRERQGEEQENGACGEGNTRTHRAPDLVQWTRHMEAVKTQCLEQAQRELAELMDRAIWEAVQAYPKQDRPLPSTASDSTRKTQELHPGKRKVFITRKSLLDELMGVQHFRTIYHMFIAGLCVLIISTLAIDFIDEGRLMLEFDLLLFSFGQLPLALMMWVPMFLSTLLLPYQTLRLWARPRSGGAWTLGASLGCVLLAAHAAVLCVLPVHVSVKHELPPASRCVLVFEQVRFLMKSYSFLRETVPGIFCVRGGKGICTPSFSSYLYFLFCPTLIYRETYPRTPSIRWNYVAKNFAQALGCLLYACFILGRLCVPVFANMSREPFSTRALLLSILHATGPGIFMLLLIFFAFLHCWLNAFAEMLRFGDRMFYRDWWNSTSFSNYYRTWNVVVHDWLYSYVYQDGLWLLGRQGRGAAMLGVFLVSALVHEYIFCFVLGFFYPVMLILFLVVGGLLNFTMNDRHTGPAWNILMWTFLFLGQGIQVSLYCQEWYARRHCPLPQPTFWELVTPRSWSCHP

macrophages = test: Inhibitory effect on cholesteryl ester accumulation in macrophages; format: cell-based, mouse (ddy-family male mice); settings: Macrophage; mouse peritoneal macrophages, β-VLDL, [3H]oleic acid, 3 hrs; read-out: Inhibition activity on cholesteryl ester accumulation (IC50 grade)
Method: Inhibitory effect on cholesteryl ester accumulation in macrophages.
Namely resident peritoneal cells suspended in phosphate-buffered saline (PBS) were plated in plastic Petri dishes (35 mm×10 mm) at a density of 2×10^6 cells. The adherent macrophages were cultured overnight at 37° C. in Dalbecco's modified Eagle medium (DME) containing 10% fetal bovine serum (FCS) under humidified 5% CO2. […] After discarding the medium, each macrophage monolayer was washed with PBS and lipids were extracted with hexane/isopropyl alcohol (3:2). Cholesteryl esters in the extract were separated by thin-layer chromatography and the radioactivity was measured by liquid scintillation counter.

Compound	lethal incident (acute toxicity) (male Wistar rats; single oral dose 2 g/kg)	inhibition in vivo at 30 mg/kg (serum total cholesterol; 30 mg/kg/day)	IC50 (ACAT)	IC50 (macrophages)	lethal incident (acute toxicity) (male Wistar rats; single oral dose 1 g/kg)	inhibition in vivo at 10 mg/kg (serum total cholesterol)
CCCN(CCCC(=O)Nc1c(S)nc(C)nc1N(CCC)c1ccccc1)c1ccccc1 [Example 143, N-[4-mercapto-2-methyl-6-(N-phenyl-N-propylamino)pyrimidin-5-yl]-4-(N-phenyl-N-propylamino)butanamide]	no lethal incident was observed	20%	80 nM	1000 to 10000 nM		
CCCCCCN(CCCC(=O)Nc1c(S)nc(C)nc1N(CC)CC)c1ccccc1 [Example 155, N-[4-(N,N-diethylamino)-6-mercapto-2-methylpyrimidin-5-yl]-4-(N-hexyl-N-phenylamino)butanamide]			88 nM		no lethal incident was observed	66%
CCCCCCN(CCCC(=O)Nc1c(SC)ncnc1N(CC)CC)c1ccccc1 [Example 232, N-[4-(N,N-diethylamino)-6-methylthiopyrimidin-5-yl]-4-(N-hexyl-N-phenylamino)butanamide]					no lethal incident was observed	65%
CCCCCCN(CCCC(=O)Nc1c(SC)nc(OC)nc1N(CC)CC)c1ccccc1 [Example 233, N-[4-(N,N-diethylamino)-2-methoxy-6-methylthiopyrimidin-5-yl]-4-(N-hexyl-N-phenylamino)butanamide]					no lethal incident was observed	76%
CCCCN(CCCC)c1nc(C)nc(SC)c1NC(=O)CCCCN(CCC)c1ccccc1 [Example 247, N-[4-(N,N-dibutylamino)-2-methyl-6-methylthiopyrimidin-5-yl]-5-(N-phenyl-N-propylamino)pentanamide]			16 nM	10 to 100 nM	no lethal incident was observed	76%
CCCCCCN(CCCC(=O)Nc1c(SCC)nc(C)nc1N(CC)CC)c1ccccc1 [Example 260, N-[4-(N,N-dietylamino)-6-ethylthio-2-methylpyrimidin-5-yl]-4-(N-hexyl-N-phenylamino)butanamide]					no lethal incident was observed	70%
CCCCCCN(CCCC(=O)Nc1c(SC(C)C)nc(C)nc1N(CC)CC)c1ccccc1 [Example 262, N-[4-(N,N-dietylamino)-6-isopropylthio-2-methylpyrimidin-5-yl]-4-(N-hexyl-N-phenylamino)butanamide]					no lethal incident was observed	53%

Source: US5397781A, “Pyrimidine derivatives” (Mochida Pharmaceutical Company, Limited, priority 1992, dated 1995)
